The results in this text go back to publication PMC6254361, “The properties of Msh2–Msh6 ATP binding mutants suggest a signal amplification mechanism in DNA mismatch repair” (The Journal of Biological Chemistry, 2018).

The target in the experiment is T1, Msh2–Msh6 (Saccharomyces cerevisiae, UniProt P25847+Q03834, Q03834:K988R).
T1 sequence (P25847 1-964): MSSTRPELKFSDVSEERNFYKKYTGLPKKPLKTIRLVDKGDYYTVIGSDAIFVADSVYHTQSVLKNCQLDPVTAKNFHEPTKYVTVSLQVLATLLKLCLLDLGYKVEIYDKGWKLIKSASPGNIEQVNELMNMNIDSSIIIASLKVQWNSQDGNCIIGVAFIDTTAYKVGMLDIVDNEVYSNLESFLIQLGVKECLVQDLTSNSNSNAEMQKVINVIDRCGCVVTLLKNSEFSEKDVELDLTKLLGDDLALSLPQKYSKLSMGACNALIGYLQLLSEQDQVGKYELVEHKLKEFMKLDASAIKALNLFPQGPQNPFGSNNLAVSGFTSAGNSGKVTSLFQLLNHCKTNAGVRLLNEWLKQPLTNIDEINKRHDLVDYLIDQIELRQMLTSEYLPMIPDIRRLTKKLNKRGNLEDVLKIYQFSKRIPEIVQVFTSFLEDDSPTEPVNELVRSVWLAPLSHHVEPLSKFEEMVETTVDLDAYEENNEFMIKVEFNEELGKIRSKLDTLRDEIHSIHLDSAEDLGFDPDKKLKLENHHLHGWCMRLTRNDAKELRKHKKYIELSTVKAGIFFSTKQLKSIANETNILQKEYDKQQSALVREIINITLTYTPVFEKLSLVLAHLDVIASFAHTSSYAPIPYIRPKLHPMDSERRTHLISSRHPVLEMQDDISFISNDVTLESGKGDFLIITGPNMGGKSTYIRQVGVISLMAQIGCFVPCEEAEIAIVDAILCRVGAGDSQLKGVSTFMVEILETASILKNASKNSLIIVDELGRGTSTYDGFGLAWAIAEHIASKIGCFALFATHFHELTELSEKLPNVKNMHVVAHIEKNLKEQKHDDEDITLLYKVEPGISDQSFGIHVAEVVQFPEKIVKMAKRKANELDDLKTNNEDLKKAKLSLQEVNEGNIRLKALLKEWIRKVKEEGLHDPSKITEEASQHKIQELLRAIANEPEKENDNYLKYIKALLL
T1 sequence (Q03834 1-1242 K988R): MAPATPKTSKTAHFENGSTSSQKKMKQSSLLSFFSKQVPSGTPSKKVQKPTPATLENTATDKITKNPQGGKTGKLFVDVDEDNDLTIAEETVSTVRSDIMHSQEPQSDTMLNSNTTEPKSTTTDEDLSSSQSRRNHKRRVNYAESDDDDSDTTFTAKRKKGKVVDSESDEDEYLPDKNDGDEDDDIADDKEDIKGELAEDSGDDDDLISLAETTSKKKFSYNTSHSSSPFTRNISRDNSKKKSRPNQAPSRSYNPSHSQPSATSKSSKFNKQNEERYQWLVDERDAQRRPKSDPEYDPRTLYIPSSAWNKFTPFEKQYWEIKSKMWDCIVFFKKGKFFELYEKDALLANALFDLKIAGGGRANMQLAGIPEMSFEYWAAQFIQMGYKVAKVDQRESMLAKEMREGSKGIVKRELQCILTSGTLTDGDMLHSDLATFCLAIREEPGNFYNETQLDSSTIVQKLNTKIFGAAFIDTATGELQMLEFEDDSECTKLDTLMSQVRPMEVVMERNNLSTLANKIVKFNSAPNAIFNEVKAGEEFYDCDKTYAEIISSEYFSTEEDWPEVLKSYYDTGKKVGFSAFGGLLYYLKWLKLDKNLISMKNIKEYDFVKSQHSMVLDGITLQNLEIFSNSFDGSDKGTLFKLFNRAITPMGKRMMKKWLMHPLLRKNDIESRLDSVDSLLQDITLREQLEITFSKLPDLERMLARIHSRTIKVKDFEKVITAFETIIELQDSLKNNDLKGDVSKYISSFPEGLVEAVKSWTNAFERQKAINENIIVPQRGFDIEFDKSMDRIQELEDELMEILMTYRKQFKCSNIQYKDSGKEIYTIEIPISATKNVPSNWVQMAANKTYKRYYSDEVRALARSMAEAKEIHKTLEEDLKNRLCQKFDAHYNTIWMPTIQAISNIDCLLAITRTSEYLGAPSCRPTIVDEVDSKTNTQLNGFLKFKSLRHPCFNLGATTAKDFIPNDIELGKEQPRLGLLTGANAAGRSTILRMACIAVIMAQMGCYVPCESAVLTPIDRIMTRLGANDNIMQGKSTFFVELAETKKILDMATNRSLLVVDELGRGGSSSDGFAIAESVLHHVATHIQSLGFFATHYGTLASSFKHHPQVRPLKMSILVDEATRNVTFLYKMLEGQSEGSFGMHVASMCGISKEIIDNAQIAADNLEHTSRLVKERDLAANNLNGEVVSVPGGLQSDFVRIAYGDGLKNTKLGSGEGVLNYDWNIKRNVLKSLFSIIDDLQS
Nature of the experiment: UV cross-linking of [γ-32P]ATP, SDS-PAGE, phosphorimaging. Type of experiment: binding. Particulars: labelled compound; no Mg2+, EDTA, pH 8, on ice; Msh2 site at 60 μM ATP, Msh6 site at 1 μM ATP.

As for `Nc1ncnc2c1ncn2[C@@H]1O[C@H](COP(=O)(O)OP(=O)(O)OP(=O)(O)O)[C@@H](O)[C@H]1O` [ATP], the “relative ATP binding” value was “Msh2–Msh6(K988A) and Msh2–Msh6(K988R) mutant complexes had partial ATP binding defects at the Msh2 subunit”.
